From patent US20080045596A1, “Ep2 Receptor Agonists” (priority 2003, published 2008)
Read-outs that look alike come from different tables or passages of the source.

Assays:
human EP4 receptor = molecular target: T1, human EP4 receptor (Homo sapiens, UniProt P35408); assay: Radioligand ([3H]PGE2) competition displacement binding, human EP4 receptor membranes; settings: human EP4, [3H]PGE2 displacement
T1 construct: expressed in transfected cells
Procedure: (§1) Membranes were prepared from cells stably transfected with human EP receptor cDNA. In brief, cells were cultured to confluency, scraped from culture flasks, and centrifuged (800 g, 8 minutes, 4° C.). Cells were twice washed in ice cold homogenisation buffer containing 10 mM Tris-HCl, 1 mM EDTA.2Na, 250 mM sucrose, 1 mM PMSF, 0.3 mM indomethacin, pH 7.4, homogenised and re-centrifuged as before. The supernatant was stored on ice and pellets re-homogenised and re-spun. Supernatants were pooled and centrifuged at 40000 g, 10 minutes, 4° C. Resultant membrane pellets were stored at −80° C. until use.
(§2) For assay, membranes expressing human EP4, EP3, EP2 or EP1 receptors were incubated in Millipore (MHVBN45) plates containing assay buffer, radiolabelled [^3H]PGE2 and 0.1 to 10 000 nM concentrations of compounds. Incubations were performed at suitable temperatures and for suitable times to allow equilibrium to be reached. Non-specific binding was determined in the presence of 10 uM PGE2. Bound and free radiolabel was separated by vacuum manifold filtration using appropriate wash buffers, and bound radiolabel was determined by scintillation counting. Constituents of each of the buffers are included in table 4 below.
(§3) The affinity or pKi of each compound for each receptor was calculated from the concentration causing 50% radioligand displacement (IC50) using the Cheng-Prusoff equation: […]
(§4) This approach follows that set out in Kenakin, T. P., Pharmacologic analysis of drug receptor interaction. Raven Press, New York, 2nd edition.

human EP2 receptor [1] = molecular target: T2, human EP2 receptor (Homo sapiens, UniProt P43116); assay: Radioligand ([3H]PGE2) competition displacement binding, human EP2 receptor membranes; settings: for pKi EP2: human EP2, [3H]PGE2 displacement, Cheng-Prusoff, mean of 4 experiments
T2 construct: expressed in transfected cells; host or cells: HEK cells (HEK-EP2)
Procedure: as §1, §2, §3, §4

human EP2 receptor [2] = molecular target: T2, human EP2 receptor; assay: cAMP production in HEK cells stably expressing the human EP2 receptor; format: cell-based; settings: 15 min stimulation, 4 experiments, logarithm of EC50
Procedure: The following describes an in vitro assay to determine the effect of compounds on cyclase production, that is, to determine their functional efficacy at the EP2 receptor.
HEK cells stably expressing the human EP2 receptor were used for these assays. HEK-EP2 cells were cultured in 96-well, poly-L-lysine coated plates at a density of 50,000 cells/well, and grown to confluence in humidified […]/5% CO2 at 37° C. Culture medium was DMEM supplemented with 10% foetal bovine serum, 100 U/ml penicillin, […] streptomycin, 2.5 μg/ml fungizone, 2 mM glutamine, 250 μg/ml geneticin and 200 μg/ml zeocin.
On reaching confluence, culture media was rinsed off using DMEM with no additions, before 175 μl assay buffer (DMEM containing 1 mM 3-isobutyl-1-methylxanthine and 3 μM indomethacin) was added to each well. This was allowed to incubate for 1 hr before the cells were stimulated with the test compounds (in triplicate) at final concentrations of 10^−9M to 10^−5M for 15 minutes. The assay was terminated by the addition of 25 μl 1M hydrochloric acid. Plates were then frozen for a minimum of 12 hours or until required for radioligand displacement assay.
Plates were thawed quickly at 37° C., and neutralised with 25 μl 1M sodium hydroxide. 30 μl of supernatant was transferred to 96-well Millipore (MAFNOB) plates coated with 0.1% Polyethylenimine. These supernatants were diluted by addition of 90 μl cAMP assay buffer (50 mM Tris, 5 mM EDTA, pH 7.0). A cAMP standard curve (10^−11M to 10^−5M) was constructed. 15 μl of 3′:5′-cAMP-dependent protein kinase (final concentration 8 μg/well), and 15 μl [^3H]-cAMP (final concentration 2 nM/well) were added to each well.
Plates were incubated on ice for 2 hours, before bound and free radiolabel were separated by vacuum filtration harvesting on the Millipore manifold, using ice cold water as the termination buffer. […]
Radioactivity was determined using the Microbeta Trilux scintillation counter. cAMP accumulation was determined from the standard curve, and the values plotted as pmoles cAMP/well.

human EP3 receptor = molecular target: T3, human EP3 receptor (Homo sapiens, UniProt P43115); assay: Radioligand ([3H]PGE2) competition displacement binding, human EP3 receptor membranes; settings: human EP3, [3H]PGE2 displacement
T3 construct: expressed in transfected cells
T3 sequence (P43115 1-390): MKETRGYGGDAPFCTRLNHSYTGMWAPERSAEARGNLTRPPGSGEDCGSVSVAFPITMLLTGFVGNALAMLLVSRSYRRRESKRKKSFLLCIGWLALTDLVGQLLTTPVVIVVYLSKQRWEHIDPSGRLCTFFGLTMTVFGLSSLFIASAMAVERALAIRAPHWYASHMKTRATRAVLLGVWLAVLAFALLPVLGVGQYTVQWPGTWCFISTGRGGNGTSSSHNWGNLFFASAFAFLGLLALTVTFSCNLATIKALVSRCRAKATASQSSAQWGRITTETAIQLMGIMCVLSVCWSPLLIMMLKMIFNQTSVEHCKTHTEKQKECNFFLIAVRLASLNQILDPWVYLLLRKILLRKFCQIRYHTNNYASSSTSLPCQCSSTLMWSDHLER
Procedure: as §1, §2, §3, §4

human myometrium = assay: Electrical field stimulation (EFS) induced contractions of human myometrial strips
Procedure: The following describes an in vitro functional assay, using human myometrial smooth muscle, to determine the affinity of the test compounds at the EP2 receptor in human tissues.
Sections of human myometrium were prepared from samples of surgically removed uterus longitudinal myometrial muscle strips (2 mm wide by 10 mm long) were then cut and suspended between stainless steel hooks in organ chambers containing oxygenated (95% O2/5% CO2) Krebs solution at 37° C. The composition of the Krebs solution was as follows: NaCl (118.2 mM), KCl (4.69 mM), MgSO4.7H2O (1.18 mM), KH2PO4 (1.19 mM), glucose (11.1 mM), NaHCO3 (25.0 mM), CaCl2.6H2O (2.5 mM), indomethacin 3×10^−6M.
Tissues were placed under a tension equivalent to 25 mN and left overnight at room temperature. The following day the tissues were maintained at 37° C., washed and placed under a tension of 15 mN then allowed to equilibrate for a period of at least 30 minutes. Responses were recorded using isometric transducers coupled to an Apple Macintosh computer via a MacLab interface. After 60 minutes, the muscle sections of the human myometrium were stimulated electrically (15 ms pulse width, for 10 s every 100 s at 15V and 0.5-40 Hz) using parallel platinum wire electrodes and a Multistim D330 pulse stimulator. Upon electrical stimulation, the strips of human myometrial smooth muscle responded with a rapid contraction. Once the response to electrical stimulation had stabilised (stimulated responses differed by no more than 10%), the strips were exposed to increasing concentrations of test compounds (1×10^−7 to 1×10^−4M, incubated for at least 15 minutes at each concentration). At the end of the experiment, application of sodium nitroprusside (SNP, a nitric oxide donor that causes smooth muscle relaxation) (1×10^−4M) was used to produce a standard relaxatory response. To determine the affinity of the compounds, the concentration of test compound required to produce half-maximal effects (EC50) was calculated, as was the maximum response (calculated as a percentage of the standard response produced with SNP).

[3] = tested on: TNFα production by LPS-stimulated monocytes; assay: Monocyte assay: LPS-induced TNFα secretion; format: cell-based, human; settings: Table 11/FIG. 14, mean of three donors, LPS 100 ng/ml, 24 h
Source text: Monocytes are peripheral mononuclear phagocytes that participate in inflammatory responses. TNFα production by monocytes plays an important role in inflammatory responses and can cause considerable tissue damage if the level remained unchecked. Inhibition of TNFα secretion by activated monocytes may provide an attractive therapy for the treatment of inflammatory conditions.
A 96 well in vitro assay was established to determine the effects of test compounds on LPS-induced TNFα secretion by human peripheral blood monocytes. The level of TNFα in assay supernatants was quantified using a standard sandwich ELISA.
Human peripheral blood mononuclear cells from healthy volunteers were isolated from whole blood by Ficoll-Hypaque density centrifugation and adherence to plastic. The non-adherent lymphocyte fraction was used to set up the lymphocyte assay and the adherent monocytes were then recovered by scraping and subsequently used in the monocyte assay.
For the monocyte assay, the cells were plated onto 96-well plates and pre-treated for 1 hour at 37° C./5% CO2 with the test compound (Peak 1, mixture 1 acid; Peak 1, mixture 2 acid; AH-13205 racemate), followed by the addition of LPS (100 ng/ml) to initiate the reaction. The plate was incubated for 24 hours and supernatants were recovered for the measurement of TNFα production by ELISA.

[4] = tested on: interferon gamma release by lymphocytes; assay: Lymphocyte assay: interferon gamma release; format: cell-based, human; settings: FIG. 11, two donors
Source text: Lymphocytes are mononuclear leukocytes, which participate in specific immune responses to foreign antigens and in the manifestation of auto-immune diseases. T lymphocytes produce IL-2, a key factor for lymphocyte activation and proliferation, in response to antigen stimulation via the CD3-T cell receptor complex and the pathway involved in this response is the NF-AT. […] A lymphocyte assay was designed to model this response and to determine the effect of test compound on IL-2 production by anti-CD3-stimulated T cells isolated from peripheral blood. This assay uses a sub-optimal dose of an anti-CD3 monoclonal antibody (OKT3, 25 ng/ml) immobilised to a 96-well plate to stimulate a T cell response. The level of IL-2 released into the cell culture supernatants was quantified using a standard sandwich ELISA. Similarly, other cytokines such as TNFα and IFN-γ can also be measured in the same assay. […]
Lymphocytes were then seeded to a 96-well plate pre-coated with anti-CD3 monoclonal antibody (OKT3) at 25 ng/ml and immediately, the test compounds (Peak 1, mixture 1 acid; Peak 1, mixture 2 acid; AH-13205 racemate; PGE2) in appropriate dilutions were added to corresponding wells according to the experimental design. […] The levels of IFN-γ was assessed by using the ProteoPlex 16 well human cytokine array assay kit according to the manufacturer's instruction.

T1 sequence (P35408 whole entry): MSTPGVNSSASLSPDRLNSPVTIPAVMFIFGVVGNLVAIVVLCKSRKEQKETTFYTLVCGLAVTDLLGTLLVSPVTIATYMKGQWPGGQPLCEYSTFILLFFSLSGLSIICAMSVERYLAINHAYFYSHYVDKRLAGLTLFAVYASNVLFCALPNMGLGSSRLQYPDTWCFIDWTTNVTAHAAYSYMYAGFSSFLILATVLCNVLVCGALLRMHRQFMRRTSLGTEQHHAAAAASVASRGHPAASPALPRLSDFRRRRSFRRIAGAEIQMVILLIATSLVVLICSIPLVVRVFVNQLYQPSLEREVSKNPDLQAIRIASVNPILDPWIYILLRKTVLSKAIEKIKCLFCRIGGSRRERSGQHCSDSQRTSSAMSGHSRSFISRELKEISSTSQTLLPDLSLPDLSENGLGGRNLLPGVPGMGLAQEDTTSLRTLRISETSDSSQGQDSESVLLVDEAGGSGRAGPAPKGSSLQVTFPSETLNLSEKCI
T2 sequence (P43116 whole entry): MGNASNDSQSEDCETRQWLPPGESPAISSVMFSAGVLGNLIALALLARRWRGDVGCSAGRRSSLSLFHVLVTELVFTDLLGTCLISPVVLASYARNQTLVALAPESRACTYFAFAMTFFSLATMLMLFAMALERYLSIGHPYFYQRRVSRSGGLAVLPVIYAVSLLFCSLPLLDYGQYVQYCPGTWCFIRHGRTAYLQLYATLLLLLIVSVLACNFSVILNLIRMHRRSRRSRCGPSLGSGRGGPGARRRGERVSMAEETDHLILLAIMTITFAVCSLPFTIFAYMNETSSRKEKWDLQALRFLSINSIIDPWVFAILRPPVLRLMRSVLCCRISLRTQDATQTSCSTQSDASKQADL

SMILES | pKi EP4 (human EP4 receptor) | pKi EP2 (human EP2 receptor [1]) | Mean Log (EC50), cAMP production (human EP2 receptor [2]) | pKi EP3 (human EP3 receptor) | effect on EFS-evoked contractions (words) (human myometrium) | also measured
CCCCC[C@H](O)c1ccc([C@H]2CCC(=O)[C@@H]2CCCCCCC(=O)O)cc1 (single isomer, unassigned) [Peak 1, Mixture 1 acid] |  |  |  |  | concentration-dependent inhibition | effect on interferon gamma release [4]: concentration-dependently inhibit interferon gamma release
CC(C)(C)NCC(O)c1cc(O)cc(O)c1 (centres unmarked) [terbutaline, reference compound] |  |  |  |  | no significant inhibitory effect | 
CCCCCC(O)c1ccc(C2CCC(=O)C2CCCCCCC(=O)O)cc1 (racemic) [AH13205, (±)-trans-2-[4-(1-hydroxyhexyl)phenyl]-5-oxo-cyclopentaneheptanoic acid, reference compound] |  |  |  |  | concentration-dependent inhibition | effect on EFS-evoked contractions (words) (human myometrium; listed as AH-13205): inhibit electrically-induced contractions

Further lines, with some results ahead:

pKi EP4 (human EP4 receptor) | pKi EP2 (human EP2 receptor [1]) | Mean Log (EC50), cAMP production (human EP2 receptor [2]) | pKi EP3 (human EP3 receptor) | SMILES | effect on EFS-evoked contractions (words) (human myometrium) | also measured
4.5 | 5.8 | −6.49 | 4.8 | CCCCC[C@H](O)c1ccc([C@@H]2CCC(=O)[C@H]2CCCCCCC(=O)O)cc1 (single isomer, unassigned; peak 2) [Peak 2, Mixture 1 acid] |  | 
5.1 | 6.9 | −7.25 | 4.8 | CCCCC[C@@H](O)c1ccc([C@H]2CCC(=O)[C@@H]2CCCCCCC(=O)O)cc1 (single isomer, unassigned; peak 1) [Peak 1, Mixture 2 acid] | concentration-dependent inhibition | maximum inhibition of EFS-induced contractions (human myometrium): 57±2%; pEC50, inhibition of EFS-evoked response (human myometrium; 1×10^-7 to 1×10^-4 M): 5.3±0.1; selectivity for EP2 among the stereoisomers (human EP2 receptor [1]; from Table 5 pKi values, EP2 versus other EP receptors): most selective; Mean Log (EC50), inhibition of TNFα production by LPS-stimulated monocytes ([3]; logarithm of EC50): −5.172; EC50 ([3]; read-out: Mean EC50, inhibition of TNFα production by LPS-stimulated monocytes): 6.73 µM
4.8 | 6.3 | −6.39 | 4.7 | CCCCC[C@@H](O)c1ccc([C@@H]2CCC(=O)[C@H]2CCCCCCC(=O)O)cc1 (single isomer, unassigned; peak 2) [Peak 2, Mixture 2 acid] |  | 
